SMILES strings stand for the structures.

The target in assay [1] is T1, EGFR tyrosine kinase (Homo sapiens, UniProt P00533).
T1 construct: Recombinant intracellular fragments of EGFR, erbB2 and erbB4; made in house; host or cells: baculovirus/Sf21 insect cells (cleared lysate used)
As to the kind of experiment: Test (a) protein tyrosine kinase phosphorylation assay, EGFR. The assay is classed as biochemical. To be noted: ATP at Km concentration; read-out: IC50 Test (a): Inhibition of EGFR tyrosine kinase protein phosphorylation. As to the method:
(§1) a) Protein Tyrosine Kinase phosphorylation Assays
(§2) This test measures the ability of a test compound to inhibit the phosphorylation of a tyrosine containing polypeptide substrate by EGFR, erbB2 and erbB4 tyrosine kinase enzyme.
(§3) Recombinant intracellular fragments of EGFR, erbB2 and erbB4 (accession numbers X00588, X03363 and L07868 respectively) were cloned and expressed in the baculovirus/Sf21 system. […]
(§4) Constitutive kinase activity of these recombinant proteins was determined by their ability to phosphorylate a synthetic peptide (made up of a random co-polymer of Glutamic Acid, Alanine and Tyrosine in the ratio of 6:3:1). […]
(§5) The immobilised phospho-peptide product of the reaction was detected by immunological methods. […] After further washing, HRP activity in each well of the plate was measured colorimetrically using 22′-Azino-di-[3-ethylbenzthiazoline sulfonate (6)]diammonium salt crystals (ABTS™ from Roche) as a substrate.
(§6) Quantification of colour development and thus enzyme activity was achieved by the measurement of absorbance at 405 nm on a Molecular Devices ThermoMax microplate reader. Kinase inhibition for a given compound was expressed as an IC50 value. […] The range of phosphorylation was calculated from the positive (vehicle plus ATP) and negative (vehicle minus ATP) control values.

Assay [2] has as its target T2, erbB2 tyrosine kinase (Homo sapiens, UniProt P04626).
T2 construct: Recombinant intracellular fragments of EGFR, erbB2 and erbB4; made in house; host or cells: baculovirus/Sf21 insect cells (cleared lysate used)
The experiment in a line: Test (a) protein tyrosine kinase phosphorylation assay, erbB2. The assay is classed as biochemical. To be noted: ATP at Km concentration; read-out: IC50 Test (a): Inhibition of erbB2 tyrosine kinase protein phosphorylation. The protocol: as §1, §2, §3, §4, §5, §6

In assay [3] the target is T3, erbB2 in a MCF7 derived cell line (Clone 24 cells) (Homo sapiens, UniProt P04626).
T3 construct: a cell line that overexpresses full length wild type erbB2 protein; expressed in transfected cells
T3 sequence (P04626 23-1255): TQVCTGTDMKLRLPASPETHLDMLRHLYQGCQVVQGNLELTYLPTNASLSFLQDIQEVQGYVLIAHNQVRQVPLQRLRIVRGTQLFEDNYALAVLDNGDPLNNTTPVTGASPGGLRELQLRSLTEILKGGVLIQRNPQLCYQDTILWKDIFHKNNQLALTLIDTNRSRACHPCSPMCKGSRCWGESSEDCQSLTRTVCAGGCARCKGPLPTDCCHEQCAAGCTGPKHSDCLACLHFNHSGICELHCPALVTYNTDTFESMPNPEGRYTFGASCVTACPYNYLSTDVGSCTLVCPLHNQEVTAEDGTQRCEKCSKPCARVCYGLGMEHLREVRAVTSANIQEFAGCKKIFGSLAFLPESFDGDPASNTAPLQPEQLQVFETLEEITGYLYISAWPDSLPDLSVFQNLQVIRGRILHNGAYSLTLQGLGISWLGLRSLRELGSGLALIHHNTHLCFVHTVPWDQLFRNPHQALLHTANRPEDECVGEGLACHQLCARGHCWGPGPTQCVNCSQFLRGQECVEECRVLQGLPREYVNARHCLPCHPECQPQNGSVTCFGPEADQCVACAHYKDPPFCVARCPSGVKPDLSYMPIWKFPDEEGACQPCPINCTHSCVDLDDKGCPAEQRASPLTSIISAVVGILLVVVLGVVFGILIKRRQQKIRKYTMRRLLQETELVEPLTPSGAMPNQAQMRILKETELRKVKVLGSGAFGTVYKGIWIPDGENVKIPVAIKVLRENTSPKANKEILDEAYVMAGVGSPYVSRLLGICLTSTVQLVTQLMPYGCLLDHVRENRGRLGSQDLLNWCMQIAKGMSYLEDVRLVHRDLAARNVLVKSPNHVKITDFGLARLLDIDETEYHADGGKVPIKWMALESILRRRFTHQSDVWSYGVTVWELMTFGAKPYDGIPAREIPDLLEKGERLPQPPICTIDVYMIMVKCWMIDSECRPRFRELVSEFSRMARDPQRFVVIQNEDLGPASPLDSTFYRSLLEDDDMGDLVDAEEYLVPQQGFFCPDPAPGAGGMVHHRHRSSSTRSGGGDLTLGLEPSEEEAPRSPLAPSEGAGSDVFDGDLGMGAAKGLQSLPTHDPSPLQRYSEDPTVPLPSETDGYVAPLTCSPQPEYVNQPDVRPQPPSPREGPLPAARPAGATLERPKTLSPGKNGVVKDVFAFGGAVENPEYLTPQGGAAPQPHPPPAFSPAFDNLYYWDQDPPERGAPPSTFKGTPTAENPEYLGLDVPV
As to the kind of experiment: Test (c) Clone 24 phospho-erbB2 cell assay. It counts as cell-based. To be noted: 4 hours with compound, read-out: IC50 Test (c): Inhibition of erbB2 tyrosine kinase protein phosphorylation. As to the method: c) Clone 24 Phospho-erbB2 Cell Assay
This immunofluorescence end point assay measures the ability of a test compound to inhibit the phosphorylation of erbB2 in a MCF7 (breast carcinoma) derived cell line which was generated by transfecting MCF7 cells with the full length erbB2 gene using standard methods to give a cell line that overexpresses full length wild type erbB2 protein (hereinafter ‘Clone 24’ cells).
Clone 24 cells were cultured in Growth Medium (phenol red free Dulbecco's modified Eagle's medium (DMEM) containing 10% foetal bovine serum, 2 mM glutamine and 1.2 mg/ml G418) in a 7.5% CO2 air incubator at 37° C. […] Cell density was measured using a haemocytometer and viability was calculated using Trypan Blue solution before being further diluted in Growth Medium and seeded at a density of 1×10^4 cells per well (in 100 μl) into clear bottomed 96 well plates (Packard, No. 6005182). […]
Immunostaining was performed at room temperature. […] Plates were analysed within six hours of completing the immunostaining.
The Fluorescence signal is each well was measured using an Acumen Explorer Instrument (Acumen Bioscience Ltd.), a plate reader that can be used to rapidly quantitate features of images generated by laser-scanning. […]

T1 sequence (P00533 669-1210 limits assumed): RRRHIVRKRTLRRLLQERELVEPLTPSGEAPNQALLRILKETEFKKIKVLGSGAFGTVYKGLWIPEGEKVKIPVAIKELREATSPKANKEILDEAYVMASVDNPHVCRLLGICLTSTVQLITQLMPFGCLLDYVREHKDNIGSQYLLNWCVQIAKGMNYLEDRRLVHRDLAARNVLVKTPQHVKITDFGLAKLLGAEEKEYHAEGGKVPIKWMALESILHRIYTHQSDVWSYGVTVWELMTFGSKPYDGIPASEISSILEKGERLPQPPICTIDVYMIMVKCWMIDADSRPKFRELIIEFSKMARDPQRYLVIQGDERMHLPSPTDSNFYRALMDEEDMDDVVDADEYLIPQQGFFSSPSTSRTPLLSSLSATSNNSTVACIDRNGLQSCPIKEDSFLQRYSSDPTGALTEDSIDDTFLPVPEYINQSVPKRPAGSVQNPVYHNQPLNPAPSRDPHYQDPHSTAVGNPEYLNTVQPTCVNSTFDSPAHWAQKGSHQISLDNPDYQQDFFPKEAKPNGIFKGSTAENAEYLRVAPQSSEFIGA
T2 sequence (P04626 676-1255 limits assumed): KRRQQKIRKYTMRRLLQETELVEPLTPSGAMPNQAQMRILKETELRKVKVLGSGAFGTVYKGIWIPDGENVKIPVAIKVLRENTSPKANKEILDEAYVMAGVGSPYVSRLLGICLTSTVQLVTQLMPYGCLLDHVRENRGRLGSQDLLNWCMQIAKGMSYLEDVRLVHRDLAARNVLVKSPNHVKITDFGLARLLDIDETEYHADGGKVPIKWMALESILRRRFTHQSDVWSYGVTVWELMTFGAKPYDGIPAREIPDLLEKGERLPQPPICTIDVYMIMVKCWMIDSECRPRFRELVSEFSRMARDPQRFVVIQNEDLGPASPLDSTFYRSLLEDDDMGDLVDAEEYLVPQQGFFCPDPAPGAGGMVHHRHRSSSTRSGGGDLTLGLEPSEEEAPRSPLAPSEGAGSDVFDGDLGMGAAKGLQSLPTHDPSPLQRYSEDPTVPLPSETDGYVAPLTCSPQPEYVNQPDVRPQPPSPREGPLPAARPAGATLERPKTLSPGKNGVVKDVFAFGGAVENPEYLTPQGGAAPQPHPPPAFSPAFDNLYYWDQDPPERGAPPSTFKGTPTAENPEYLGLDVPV

For the molecule `C[C@H](COc1cccc2ncnc(Nc3ccc4c(ccn4Cc4ccccn4)c3)c12)N(C)C(=O)CO` [Example 2, 2-Hydroxy-N-methyl-N-{(R)-1-methyl-2-[4-(1-pyridin-2-ylmethyl-1H-indol-5-ylamino)-quinazolin-5-yloxy]-ethyl}-acetamide], the IC50 was 63 nM in assay [1], 5 nM in assay [2] and 2 nM in assay [3].
As for `C[C@H](CN(C)C(=O)CO)Oc1cccc2ncnc(Nc3ccc4c(ccn4Cc4ccccn4)c3)c12` [Example 1, 2-Hydroxy-N-methyl-N-{(2R)-2-[(4-{[1-(pyridin-2-ylmethyl)-1H-indol-5-yl]amino}quinazolin-5-yl)oxy]propyl}acetamide], the 50% inhibitory concentration (IC50) in assay [1] was 780 nM; in assay [2], 71 nM; in assay [3], 1010 nM.

For orientation: IC50 means the midpoint of a concentration-inhibition curve.

The values are drawn from patent US20090023759A1, “Quinazoline Derivatives as Inhibitors of EGF and/or erbB2 Receptor Tyrosine Kinase” (priority 2005, published 2009).
